Tests used:
[1] = test system: rats; assay: Geller-Seifter conflict test; format: in vivo, Sprague-Dawley rats
Description: This animal model of human anxiety utilizes a conditioned state of conflict in rats to ascertain the anxiolytic properties of drugs. Rats are conditioned to bar press for positive reinforcement under two schedules of behavior (Geller and Seifter, Psychopharmacologia 1:482-492 (1960)). The first includes bar pressing under a […] schedule without punishment. The second component is a fixed ratio schedule with each bar press resulting in a positive reinforcement and a punishment. The punished component produces a state of conflict within the animal. […] An anxiolytic response would increase the punished responding without affecting the unpunished responding.
Male albino Sprague-Dawley rats (Charles River Labs, Wilmington, MA) weighing 250-300 g were used for conflict experiments and were kept on a restricted diet of Purina Lab Chow food pellets with water available at all times to maintain body weight at 85% of their free-feeding young adult levels. Rats were housed individually under a 12-hour light-dark cycle with lights on from 0700-1900.
The anti-anxiety (punishment-lessening) and response depressant effects of […] and […] were measured in rats by the conflict test of Geller and Seifter (1960). In this 63-min test, hungry rats perform a lever-press response to obtain a sweetened milk reward. The reinforcement schedule consists of punishment and nonpunishment components, alternating approximately every 15 min. Rats were trained in test chambers (Coulbourn instruments) with a lever mounted in one wall, a small dipper that delivered the 0.1-mL milk reward (1 part Eagle condensed : milk 2 parts water), and a metal grid floor through which the foot-shock punishment was administered. A DEC PDP 11/73 minicomputer running SKED (State Systems) was used for programming and recording.
Rates initially learned to respond on a continuous reinforcement schedule and progressed rapidly to 30-sec, 1-min, and 2-min variable interval (VI) schedules. On the continuous reinforcement schedule, rats received milk reward following every lever press; on the VI schedules, milk rewards were available at infrequent and variable intervals, eventually at an average of once every 2 min. Four 3-min "conflict" periods were then introduced on the unpunished VI baseline; the first started after 3 min of VI performance and the others were alternated between 12-min periods of VI responding. During conflict periods, which were signalled by the presentation of a light and a tone, the continuous reinforcement schedule was again in force and each lever press delivered both a milk reward and a brief ([…]) foot-shock punishment. Shock intensity was 0.2 mA initially, and.was increased daily in increments of 0.02 mA in order to gradually suppress lever pressing to 5 responses or less per conflict period. This training took 4-6 weeks, after which stable low rates of response were observed during conflict periods and stable high rates in the nonpunishment periods. Drug-induced increases in the rate of punished responses were taken as an index of antianxiety activity, while decreases in the rate of unpunished responses were taken as an index of response depression or sedation.

[2] = test system: metrazol induced convulsions; assay: animal or person; format: in vivo, mice
[3] = test system: rats; assay: Vogel test; format: in vivo; settings: i.c.v., b-CD, 10 ug
Description: The Vogel test is based on the development of a conflict between a highly motivated behavior and an aversion. For this test, the strong motivation is thirst. The animal is water deprived for 12-16 hrs to produce the motivation to drink. During the training period the animals are exposed to the testing environment so they become accustomed to the drinking spout and minimize the fear of a novel environment. Following training, the animals are allowed access to water for 2 hrs. During this time, the animals will drink and eat their normal amount of water and food, compensating for the deprivation time. However, this schedule still produces a strong motivation to drink during the testing period.
Having been deprived of water for twelve to sixteen hours, an animal is placed in a test cage where it is allowed to drink freely for five minutes. This period is used to habituate the animal to the environment and the drinking spout Following the training period, animals have access to water and food in their home cage for 2 hrs. Food is available at all times. Twenty-four hours later, drug is administered to the animal intracerebroventricularly.
After an indicated delay started from the time of injection the animal is again placed in the test cage for ten minutes. A computer counts each time the animal licks, and after every twentieth lick administers a mild electric stimulus across the tongue and/or feet. The electrical stimulus consists of a 0.6 mA current with a duration of 100 msec. This procedure produces a state of conflict for the animal that is reduced by the administration of clinically used anxiolytic agents (i.e., Valium). For dose-response curves, separate groups of animals are injected with increasing doses of test drug and are tested at a predetermined time.

[4] = conflict test, subcutaneous administration

**Q.** Which results are given for `CC(=O)[C@H]1CC[C@H]2[C@@H]3CC[C@H]4C[C@H](O)CC[C@]4(C)[C@H]3CC[C@]12C` [3α-hydroxy-5α-pregnan-20-one, reference compound]?
**A.** dose at which the peak effect was observed [1, 4]: 4.4 mg/kg; rate of punished responses [1, 4]: large increases; Geller/Seifter (% of control) ([1]; sc, 50% hpbcd, 5 mg/kg): 471.8 % of control; % Protected ([2]; IP, 50% hpbcd, 10 mg/kg, 10 minutes prior to metrazol (85 mg/kg)): 100%; ED50 ([2]; Mus musculus, metrazol s.c., steroid i.p., 20% hydroxypropyl-β-cyclodextrin in water): 4.9 mg/kg; Vogel (% of control) [3]: 431.1 % of control

From patent EP0808325B1, “[…] […] SERIES FOR […] GABA RECEPTOR” (priority 1994, dated 1996)
